Data reported in patent US10604535B2, “Compounds, compositions and methods” (Denali Therapeutics Inc., priority 2016, dated 2020).

These compounds were tested on FADD-deficient Jurkat cells (assay: Cellular necroptosis assay (human TNFα-induced necrosis, CellTiter-Glo)). Conditions: Homo sapiens, Jurkat, 48 h, TNFα 10 ng/mL, read-out: Cell IC50.
Format: cell-based

`CN1C(=O)[C@@H](NC(=O)c2nnc(Cc3ccccc3)[nH]2)C[C@@H](F)c2ccccc21` (mixture of isomers) [Example 11, 5-benzyl-N-((3S,5R)-5-fluoro-1-methyl-2-oxo-2,3,4,5-tetrahydro-1H-benzo[b]azepin-3-yl)-4H-1,2,4-triazole-3-carboxamide and 5-benzyl-N-((3R,5S)-5-fluoro-1-methyl-2-oxo-2,3,4,5-tetrahydro-1H-benzo[b]azepin-3-yl)-4H-1,2,4-triazole-3-carboxamide] and `CN1C(=O)[C@H](NC(=O)c2nnc(Cc3ccccc3)[nH]2)C[C@H](F)c2ccccc21` (mixture of isomers) [Example 11B, 5-benzyl-N-((3S,5R)-5-fluoro-1-methyl-2-oxo-2,3,4,5-tetrahydro-1H-benzo[b]azepin-3-yl)-4H-1,2,4-triazole-3-carboxamide and 5-benzyl-N-((3R,5S)-5-fluoro-1-methyl-2-oxo-2,3,4,5-tetrahydro-1H-benzo[b]azepin-3-yl)-4H-1,2,4-triazole-3-carboxamide] fall in the same range of IC50: 0.1 to 1000 nM for the first, 0.1 to 1000 nM for the second.

`CN1C(=O)[C@@H](NC(=O)c2nnc(Cc3ccccc3)[nH]2)C[C@H](F)c2ccccc21` (mixture of isomers) [Example 12, 5-benzyl-N-((3S,5S)-5-fluoro-1-methyl-2-oxo-2,3,4,5-tetrahydro-1H-benzo[b]azepin-3-yl)-4H-1,2,4-triazole-3-carboxamide and 5-benzyl-N-((3R,5R)-5-fluoro-1-methyl-2-oxo-2,3,4,5-tetrahydro-1H-benzo[b]azepin-3-yl)-4H-1,2,4-triazole-3-carboxamide] and `CN1C(=O)[C@H](NC(=O)c2nnc(Cc3ccccc3)[nH]2)C[C@@H](F)c2ccccc21` (mixture of isomers) [Example 12B, 5-benzyl-N-((3S,5S)-5-fluoro-1-methyl-2-oxo-2,3,4,5-tetrahydro-1H-benzo[b]azepin-3-yl)-4H-1,2,4-triazole-3-carboxamide and 5-benzyl-N-((3R,5R)-5-fluoro-1-methyl-2-oxo-2,3,4,5-tetrahydro-1H-benzo[b]azepin-3-yl)-4H-1,2,4-triazole-3-carboxamide] fall in the same range of IC50: 0.1 to 1000 nM for the first, 0.1 to 1000 nM for the second.

`CN1C(=O)[C@@H](NC(=O)c2cc(Cc3ccccc3)on2)CCc2sc(Cl)cc21` (stereo in doubt) [Example 1A, 5-Benzyl-N-(2-chloro-4-methyl-5-oxo-4H,5H,6H,7H,8H-thieno[3,2-b]azepin-6-yl)-1,2-oxazole-3-carboxamide] and `CN1C(=O)C(NC(=O)c2cc(Cc3ccccc3)on2)CC(F)c2ccccc21` (stereo not drawn) [Example 2, 5-benzyl-N-(5-fluoro-1-methyl-2-oxo-2,3,4,5-tetrahydro-1H-benzo[b]azepin-3-yl)isoxazole-3-carboxamide] fall in the same range of IC50: 0.1 to 1000 nM for the first, 0.1 to 1000 nM for the second.

First: CN1C(=O)C(NC(=O)c2cc(Cc3ccccc3)on2)[C@@H]2C[C@@H]2c2ccccc21 (stereo in doubt) [Example 7B, 5-benzyl-N-((2S)-4-methyl-3-oxo-1,1a,2,3,4,8b-hexahydrobenzo[b]cyclopropa[d]azepin-2-yl)isoxazole-3-carboxamide]
Second: CN1C(=O)[C@@H](NC(=O)c2cc(Cc3ccccc3)on2)[C@H]2C[C@H]2c2ccccc21 [Example 7A, 5-benzyl-N-((2S)-4-methyl-3-oxo-1,1a,2,3,4,8b-hexahydrobenzo[b]cyclopropa[d]azepin-2-yl)isoxazole-3-carboxamide]
The IC50 of the first is higher: 1000 to 10000 nM for the first, 0.1 to 1000 nM for the second. The second is the more potent here.

`CN1C(=O)[C@@H](NC(=O)c2ncc(Cc3ccccc3)s2)COc2ccccc21` [Example 5, (S)-5-benzyl-N-(5-methyl-4-oxo-2,3,4,5-tetrahydrobenzo[b][1,4]oxazepin-3-yl)thiazole-2-carboxamide] and `CN1C(=O)[C@@H](NC(=O)c2nn(Cc3ccccc3)cc2F)COc2ccccc21` [Example 64, (S)-1-benzyl-4-fluoro-N-(5-methyl-4-oxo-2,3,4,5-tetrahydrobenzo[b][1,4]oxazepin-3-yl)-1H-pyrazole-3-carboxamide] fall in the same range of IC50: 0.1 to 1000 nM for the first, 0.1 to 1000 nM for the second.

`CN1C(=O)[C@@H](NC(=O)c2cc(Cc3ccccc3)[nH]n2)CC2(CC2)c2ccccc21` [Example 59, 5-benzyl-N-[(3S)-1-methyl-2-oxo-1,2,3,4-tetrahydrospiro[1-benzazepine-5,1-cyclopropane]-3-yl]-1H-pyrazole-3-carboxamide] and `CN1C(=O)[C@@H](NC(=O)c2cc(Cc3ccccc3)[nH]n2)[C@H]2C[C@H]2c2ccccc21` [Example 60A, 5-benzyl-N-((1aS,2S,8bR)-4-methyl-3-oxo-1,1a,2,3,4,8b-hexahydrobenzo[b]cyclopropa[d]azepin-2-yl)-1H-pyrazole-3-carboxamide] fall in the same range of IC50: 0.1 to 1000 nM for the first, 0.1 to 1000 nM for the second.

`CN1C(=O)[C@@H](NC(=O)c2coc(C3(c4ccccc4)CC3)n2)COc2ccccc21` [Example 61, (S)—N-(5-methyl-4-oxo-2,3,4,5-tetrahydrobenzo[b][1,4]oxazepin-3-yl)-2-(1-phenylcyclopropyl)oxazole-4-carboxamide] and `CN1C(=O)[C@@H](NC(=O)c2ncc(C3(c4ccccc4)CC3)s2)COc2cccnc21` [Example 63, (S)—N-(5-methyl-4-oxo-2,3,4,5-tetrahydropyrido[3,2-b][1,4]oxazepin-3-yl)-5-(1-phenylcyclopropyl)thiazole-2-carboxamide] fall in the same range of IC50: 0.1 to 1000 nM for the first, 0.1 to 1000 nM for the second.

`O=C(N[C@H]1COc2cccnc2NC1=O)c1cc(C2(c3ccccc3)CC2)on1` [Example 62, (S)—N-(4-oxo-2,3,4,5-tetrahydropyrido[3,2-b][1,4]oxazepin-3-yl)-5-(1-phenylcyclopropyl)isoxazole-3-carboxamide] showed an IC50 of 0.1 to 1000 nM.

Same assay, conditions: Homo sapiens, Jurkat, 48 h, read-out: Cell IC50, TNFα 10 ng/mL, 48 h

For `O=C(N[C@H]1CCc2ccccc2-n2ccnc21)c1nnc(Cc2ccccc2)[nH]1` [Example 52, (S)-5-benzyl-N-(5,6-dihydro-4H-benzo[f]imidazo[1,2-a]azepin-4-yl)-4H-1,2,4-triazole-3-carboxamide], the IC50 was 0.1 to 1000 nM.

Same assay, conditions: TNFα 10 ng/mL, 48 h; read-out: Cell IC50

`CN1C(=O)[C@@H](NC(=O)c2nnc(Cc3ccccc3)[nH]2)C[C@@H](F)c2ccccc21` (mixture of isomers) [Example 11A, 5-benzyl-N-((3S,5R)-5-fluoro-1-methyl-2-oxo-2,3,4,5-tetrahydro-1H-benzo[b]azepin-3-yl)-4H-1,2,4-triazole-3-carboxamide and 5-benzyl-N-((3R,5S)-5-fluoro-1-methyl-2-oxo-2,3,4,5-tetrahydro-1H-benzo[b]azepin-3-yl)-4H-1,2,4-triazole-3-carboxamide] and `CN1C(=O)[C@@H](NC(=O)c2nnc(Cc3ccccc3)[nH]2)C[C@H](F)c2ccccc21` (mixture of isomers) [Example 12A, 5-benzyl-N-((3S,5S)-5-fluoro-1-methyl-2-oxo-2,3,4,5-tetrahydro-1H-benzo[b]azepin-3-yl)-4H-1,2,4-triazole-3-carboxamide and 5-benzyl-N-((3R,5R)-5-fluoro-1-methyl-2-oxo-2,3,4,5-tetrahydro-1H-benzo[b]azepin-3-yl)-4H-1,2,4-triazole-3-carboxamide] fall in the same range of IC50: 0.1 to 1000 nM for the first, 0.1 to 1000 nM for the second.

`CN1C(=O)[C@@H](NC(=O)c2nnc([C@H]3CCc4ccccc43)[nH]2)COc2cccnc21` [Example 54B, 5-((S)-2,3-dihydro-1H-inden-1-yl)-N—((S)-5-methyl-4-oxo-2,3,4,5-tetrahydropyrido[3,2-b][1,4]oxazepin-3-yl)-4H-1,2,4-triazole-3-carboxamide] was tested, and the IC50 was 0.1 to 1000 nM.

What follows are compounds tested against GST-hRIPK1 (8-327) (Homo sapiens (Human), UniProt Q13546) (assay: Fluorescent Polarization Binding (FP Binding) assay). Conditions: not given.
Sequence of GST-hRIPK1 (8-327) (Q13546 8-327): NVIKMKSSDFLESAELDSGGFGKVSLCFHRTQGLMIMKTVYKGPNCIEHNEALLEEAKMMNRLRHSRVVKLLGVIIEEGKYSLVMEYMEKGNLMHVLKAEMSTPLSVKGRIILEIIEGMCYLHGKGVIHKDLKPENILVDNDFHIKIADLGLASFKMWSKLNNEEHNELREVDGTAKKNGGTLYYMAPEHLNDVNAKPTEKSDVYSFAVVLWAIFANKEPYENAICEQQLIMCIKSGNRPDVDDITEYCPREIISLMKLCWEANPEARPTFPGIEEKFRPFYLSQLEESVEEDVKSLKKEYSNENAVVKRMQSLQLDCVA

First: N#Cc1cccc(Cc2nnc(C(=O)N[C@H]3C(=O)Nc4c(F)cc(F)cc4[C@H]4C[C@H]43)[nH]2)c1 [Example 181A, 5-(3-cyanobenzyl)-N-((1aR,2R,8bS)-5,7-difluoro-3-oxo-1,1a,2,3,4,8b-hexahydrobenzo[b]cyclopropa[d]azepin-2-yl)-4H-1,2,4-triazole-3-carboxamide]
Second: CN1C(=O)[C@@H](NC(=O)c2ncc(Cc3ccccc3)o2)[C@H]2C[C@H]2c2nccnc21 [Example 194, 5-benzyl-N-((7S,7aS,8aR)-5-methyl-6-oxo-5,6,7,7a,8,8a-hexahydrocyclopropa[d]pyrazino[2,3-b]azepin-7-yl)oxazole-2-carboxamide]
The IC50 of the first is higher: greater than 3000 nM for the first, 0.1 to 1000 nM for the second.

First: Cc1ncccc1Cn1cc(F)c(C(=O)N[C@@H]2CCc3nccnc3N(C)C2=O)n1 [Example 182A, (R)-4-fluoro-N-(5-methyl-6-oxo-6,7,8,9-tetrahydro-5H-pyrazino[2,3-b]azepin-7-yl)-1-((2-methylpyridin-3-yl)methyl)-1H-pyrazole-3-carboxamide]
Second: CN1C(=O)[C@@H](NC(=O)c2nn(Cc3cnn(C)c3)cc2F)COc2cccnc21 [Example 184, (S)-4-fluoro-1-((1-methyl-1H-pyrazol-4-yl)methyl)-N-(5-methyl-4-oxo-2,3,4,5-tetrahydropyrido[3,2-b][1,4]oxazepin-3-yl)-1H-pyrazole-3-carboxamide]
The IC50 of the first is higher: greater than 3000 nM for the first, 0.1 to 1000 nM for the second. The second is the more potent here.

First: [2H]C([2H])([2H])N1C(=O)[C@H](NC(=O)c2nn(Cc3ccccc3)cc2F)[C@@H]2C[C@@H]2c2cc(S(C)(=O)=O)ccc21 [Example 183A, 1-benzyl-4-fluoro-N-((1aR,2R,8bS)-4-trideuteriomethyl-7-(methylsulfonyl)-3-oxo-1,1a,2,3,4,8b-hexahydrobenzo[b]cyclopropa[d]azepin-2-yl)-1H-pyrazole-3-carboxamide]
Second: C[C@H]1Oc2cccnc2N(C)C(=O)[C@H]1NC(=O)c1cnn(Cc2ccccc2)n1 [Example 204, 2-benzyl-N-((2R,3S)-2,5-dimethyl-4-oxo-2,3,4,5-tetrahydropyrido[3,2-b][1,4]oxazepin-3-yl)-2H-1,2,3-triazole-4-carboxamide]
The IC50 of the first is higher: greater than 3000 nM for the first, 0.1 to 1000 nM for the second. The second is the more potent here.

`CN1C(=O)[C@@H](NC(=O)c2nnc(Cc3ccccc3)o2)CCc2nccnc21` [Example 190, (S)-5-benzyl-N-(5-methyl-6-oxo-6,7,8,9-tetrahydro-5H-pyrazino[2,3-b]azepin-7-yl)-1,3,4-oxadiazole-2-carboxamide] and `C[C@H]1Oc2ncccc2N(C)C(=O)[C@H]1NC(=O)c1nnc(Cc2ccccc2)o1` [Example 193, 5-benzyl-N-((3S,4R)-1,4-dimethyl-2-oxo-1,2,3,4-tetrahydropyrido[2,3-b][1,4]oxazepin-3-yl)-1,3,4-oxadiazole-2-carboxamide] fall in the same range of IC50: 0.1 to 1000 nM for the first, 0.1 to 1000 nM for the second.
